Assays:
[1] = target: T1, HSP90a protein (Homo sapiens, UniProt P07900); assay: HSP90α-binding fluorescent polarization (FP) assay, BODIPY-labeled RNK04010 probe; conditions: FP competition with RNK04010 (BODIPY-labeled), 5 nM, 300 min at 25° C.
T1 construct: purchased BPS Bioscience 50298
In short: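 Compounds (20 μM down to 5.2 nM, 2.5-fold steps) compete with a 5 nM fluorescent tracer for N-terminal HSP90a, measured by fluorescence polarization. With FITC-geldanamycin, plates sit 120 min at 25 °C. With BODIPY-RNK04010, they sit 300 min at 25 °C.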

[2] = target: T2, KRAS(G12C) (Homo sapiens, UniProt P01116, G12C); assay: KRAS(G12C) Western blot protein degradation assay in LU65A cells; assay type: cell-based; design: LU65A human lung cancer cell line, which expresses KRAS(G12C); host or cells: LU65A; conditions: 6 hr
In short: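 KRAS levels read by fluorescent Western blot (β-actin as reference) on BCA-normalized lysates. Exposure to a compound concentration range at 37 °C lasted 6 hr in LU65A and 48 hr in MIA PaCa-2; DC50 taken as half-maximal degradation concentration.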

[3] = tested on: MIA PaCa-2 human pancreatic carcinoma; assay: MIA PaCa-2 CCK-8 proliferation assay; assay type: cell-based; conditions: Homo sapiens, MIA PaCa-2, 72 h, MIA PaCa-2 cells
In short: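 Compounds were tested as a 3-fold series from 20 μM down to 1.02 nM in CCK-8 absorbance assays. The lines used were NCI-H23 and NCI-H358, each with 1 KRAS(G12C) copy, and MIA PaCa-2 with 2 copies. Inhibition was derived relative to DMSO controls, with a no-cell blank subtracted.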

[4] = target: T2, KRAS(G12C); assay: KRAS(G12C)/SOS1 homogeneous time-resolved fluorescence (HTRF) assay; design: purchased Cisbio 63ADK000CB16PEG; conditions: absence of GTP, 4° C. for 3 hr, read-out: KRAS (G12C) binding
In short: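 Three-hour incubation at 4 °C of 3-fold compound dilutions (lowest 1.02 nM) with KRAS(G12C), SOS1 and detection reagents, GTP absent. Disruption of the KRAS(G12C)/SOS1 complex detected by time-resolved fluorescence.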

T2 sequence (P01116 1-188 isoform P01116-2 G12C): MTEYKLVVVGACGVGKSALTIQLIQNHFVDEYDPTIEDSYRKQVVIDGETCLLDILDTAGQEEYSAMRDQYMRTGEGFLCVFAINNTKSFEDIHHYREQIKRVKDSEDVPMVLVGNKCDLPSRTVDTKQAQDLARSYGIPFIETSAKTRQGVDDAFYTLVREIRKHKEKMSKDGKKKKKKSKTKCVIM

IC50 [1]	DC50 [2]	EC50 [3]	IC50 [4]	Compound
< 100 nM	100 to 1000 nM	> 1000 nM	< 100 nM	C=CC(=O)N1CCN(c2nc(OCCN3CCN(C(=O)C4CCN(Cc5ccc(-n6c(O)nnc6-c6cc(C)c(O)cc6O)cc5)CC4)CC3)nc3c2CCN(c2cccc4cccc(Cl)c24)C3)C[C@@H]1CC#N [Compound 223, (S)-2-(1-acryloyl-4-(7-(8-chloronaphthalen-1-yl)-2-(2-(4-(1-(4-(3-(2,4-dihydroxy-5-methylphenyl)-5-hydroxy-4H-1,2,4-triazol-4-yl)benzyl)piperidine-4-carbonyl)piperazin-1-yl)ethoxy)-5,6,7,8-tetrahydropyrido[3,4-d]pyrimidin-4-yl)piperazin-2-yl)acetonitrile]
< 100 nM	> 1000 nM	100 to 1000 nM	100 to 1000 nM	C=CC(=O)N1CCN(c2nc(OCCN3CCN(C(=O)C4CCN(Cc5ccc(-n6c(C(=O)NCC(F)(F)F)nnc6-c6cc(C(C)C)c(O)cc6O)cc5)CC4)CC3)nc3c2CCN(c2cccc4cccc(Cl)c24)C3)C[C@@H]1CC#N [Compound 206, (S)-4-(4-((4-(4-(2-((4-(4-acryloyl-3-(cyanomethyl)piperazin-1-yl)-7-(8-chloronaphthalen-1-yl)-5,6,7,8-tetrahydropyrido[3,4-d]pyrimidin-2-yl)oxy)ethyl)piperazine-1-carbonyl)piperidin-1-yl)methyl)phenyl)-5-(2,4-dihydroxy-5-isopropylphenyl)-N-(2,2,2-trifluoroethyl)-4H-1,2,4-triazole-3-carboxamide, trifluoroacetic acid]
< 100 nM	100 to 1000 nM	100 to 1000 nM	< 100 nM	C=CC(=O)N1CCN(c2nc(OCCN3CCN(C(=O)C4CCN(Cc5ccc(-n6c(O)nnc6-c6cc(C(C)C)c(O)cc6O)cc5)CC4)CC3)nc3c2CCN(c2cccc4cccc(Cl)c24)C3)C[C@@H]1CC#N [Compound 192, (S)-2-(1-acryloyl-4-(7-(8-chloronaphthalen-1-yl)-2-(2-(4-(1-(4-(3-(2,4-dihydroxy-5-isopropylphenyl)-5-hydroxy-4H-1,2,4-triazol-4-yl)benzyl)piperidine-4-carbonyl)piperazin-1-yl)ethoxy)-5,6,7,8-tetrahydropyrido[3,4-d]pyrimidin-4-yl)piperazin-2-yl)acetonitrile, trifluoroacetic acid]
< 100 nM	100 to 1000 nM	100 to 1000 nM	< 100 nM	C=CC(=O)N1CCN(c2nc(OCCN3CCN(Cc4ccc(-n5c(O)nnc5-c5cc(C(C)C)c(O)cc5O)cc4)CC3)nc3c2CCN(c2cccc4cccc(Cl)c24)C3)C[C@@H]1CC#N [Compound 351, 2-[(2S)-4-[7-(8-chloronaphthalen-1-yl)-2-{2-[4-({4-[3-(2,4-dihydroxy-5-isopropylphenyl)-5-hydroxy-1,2,4-triazol-4-yl]phenyl}methyl)piperazin-1-yl]ethoxy}-5H,6-H,8H-pyrido[3,4-d]pyrimidin-4-yl]-1-(prop-2-enoyl)piperazin-2-yl]acetonitrile]

Further lines, the compound ahead of its results:

Compound	IC50 [1]	DC50 [2]	EC50 [3]	IC50 [4]
C=CC(=O)N1CCN(c2nc(OC[C@@H]3CC[C@H](CN4CCN(Cc5ccc(-n6c(O)nnc6-c6cc(C)c(O)cc6O)cc5)CC4)N3C)nc3c2CCN(c2cccc4cccc(Cl)c24)C3)C[C@@H]1CC#N [Compound 227, 2-[(2S)-4-[7-(8-chloronaphthalen-1-yl)-2-{[(2S,5R)-5-{[4-({4-[3-(2,4-dihydroxy-5-methylphenyl)-5-hydroxy-1,2,4-triazol-4-yl]phenyl}methyl)piperazin-1-yl]methyl}-1-methylpyrrolidin-2-yl]methoxy}-5H,6H,8H-pyrido[3,4-d]pyrimidin-4-yl]-1-(prop-2-enoyl)piperazin-2-yl]acetonitrile]	< 100 nM	> 1000 nM	100 to 1000 nM	< 100 nM
C=CC(=O)N1CCN(c2nc(OC[C@@H]3C[C@H](C(=O)NCCOCCOc4ccc(-n5c(O)nnc5-c5cc(CC)c(O)cc5O)cc4)CN3C)nc3c2CCN(c2cccc4cccc(Cl)c24)C3)C[C@@H]1CC#N [Compound 349, (3S,5S)-5-({[7-(8-chloronaphthalen-1-yl)-4-[(3S)-3-(cyanomethyl)-4-(prop-2-enoyl)piperazin-1-yl]-5H,6H,8H-pyrido[3,4-d]pyrimidin-2-yl]oxy}methyl)-N-[2-(2-{4-[3-(5-ethyl-2,4-dihydroxyphenyl)-5-hydroxy-1,2,4-triazol-4-yl]phenoxy}ethoxy)ethyl]-1-methylpyrrolidine-3-carboxamide]	< 100 nM	100 to 1000 nM	> 1000 nM	< 100 nM
C=CC(=O)N1CCN(c2nc(OC[C@@H]3CC[C@H](CN4CCN(Cc5ccc(-n6c(O)nnc6-c6cc(C(C)C)c(O)cc6O)cc5)CC4)N3C)nc3c2CCN(c2cccc4cccc(Cl)c24)C3)C[C@@H]1CC#N [Compound 326, 2-[(2S)-4-[7-(8-chloronaphthalen-1-yl)-2-{[(2S,5R)-5-{[4-({4-[3-(2,4-dihydroxy-5-isopropylphenyl)-5-hydroxy-1,2,4-triazol-4-yl]-phenyl}methyl)piperazin-1-yl]methyl}-1-methylpyrrolidin-2-yl]methoxy}-5H,6H,8H-pyrido[3,4-d]pyrimidin-4-yl]-1-(prop-2-enoyl)piperazin-2-yl]acetonitrile]	< 100 nM	100 to 1000 nM	100 to 1000 nM	< 100 nM
C=CC(=O)N1CCN(c2nc(OC[C@@H]3C[C@H](N4CCC(C(=O)N5CCN(Cc6ccc(-n7c(C(=O)NCC(F)(F)F)nnc7-c7cc(C)c(O)cc7O)cc6)CC5)CC4)CN3C)nc3c2CCN(c2cccc4cccc(Cl)c24)C3)C[C@@H]1CC#N [Compound 336, 4-{4-[(4-{1-[(3S,5S)-5-({[7-(8-chloronaphthalen-1-yl)-4-[(3S)-3-(cyanomethyl)-4-(prop-2-enoyl)piperazin-1-yl]-5H,6H,8H-pyrido[3,4-d]pyrimidin-2-yl]oxy}methyl)-1-methylpyrrolidin-3-yl]piperidine-4-carbonyl}piperazin-1-yl)methyl]phenyl}-5-(2,4-dihydroxy-5-methylphenyl)-N-(2,2,2-trifluoroethyl)-1,2,4-triazole-3-carbox-amide]	< 100 nM	> 1000 nM	100 to 1000 nM	< 100 nM
C=CC(=O)N1CCN(c2nc(OC[C@@H]3C[C@H](C(=O)N4CC5(CCN(Cc6ccc(-n7c(O)nnc7-c7cc(C(C)C)c(O)cc7O)cc6)CC5)C4)CN3C)nc3c2CCN(c2cccc4cccc(Cl)c24)C3)C[C@@H]1CC#N [Compound 230, 2-[(2S)-4-[7-(8-chloronaphthalen-1-yl)-2-{[(2S,4S)-4-[7-({4-[3-(2,4-dihydroxy-5-isopropylphenyl)-5-hydroxy-1,2,4-triazol-4-yl]phenyl}methyl)-2,7-diazaspiro[3.5]nonane-2-carbonyl]-1-methylpyrrolidin-2-yl]methoxy}-5H,6H,8H-pyrido[3,4-d]pyrimidin-4-yl]-1-(prop-2-enoyl)piperazin-2-yl]acetonitrile]	< 100 nM	> 1000 nM	100 to 1000 nM	< 100 nM
C=CC(=O)N1CCN(c2nc(OC[C@@H]3C[C@H](N4CCC(C(=O)N5CCC6(CC5)CN(Cc5ccc(-n7c(O)nnc7-c7cc(C(C)C)c(O)cc7O)cc5)C6)CC4)CN3C)nc3c2CCN(c2cccc4cccc(Cl)c24)C3)C[C@@H]1CC#N [Compound 350, 2-[(2S)-4-[7-(8-chloronaphthalen-1-yl)-2-{[(2S,4S)-4-{4-[2-({4-[3-(2,4-dihydroxy-5-isopropylphenyl)-5-hydroxy-1,2,4-triazol-4-yl]phenyl}methyl)-2,7-diazaspiro [3.5]nonane-7-carbonyl]piperidin-1-yl}-1-methylpyrrolidin-2-yl]methoxy}-5H,6-H,8H-pyrido[3,4-d]pyrimidin-4-yl]-1-(prop-2-enoyl)piperazin-2-yl]acetonitrile]	< 100 nM	100 to 1000 nM	100 to 1000 nM	< 100 nM
C=CC(=O)N1CCN(c2nc(OCC3CN(Cc4ccc(-n5c(O)nnc5-c5cc(C(C)C)c(O)cc5O)cc4)C3)nc3c2CCN(c2cccc4cccc(Cl)c24)C3)C[C@@H]1CC#N [Compound 231, (S)-2-(1-acryloyl-4-(7-(8-chloronaphthalen-1-yl)-2-((1-(4-(3-(2,4-dihydroxy-5-isopropylphenyl)-5-hydroxy-4H-1,2,4-triazol-4-yl)benzyl)azetidin-3-yl)methoxy)-5,6,7,8-tetrahydropyrido[3,4-d]pyrimidin-4-yl)piperazin-2-yl)acetonitrile]	< 100 nM	> 1000 nM	> 1000 nM	100 to 1000 nM

Source: patent US20230391772A1, “METHODS AND COMPOSITIONS FOR TARGETED PROTEIN DEGRADATION” (Ranok Therapeutics (Hangzhou) Co. Ltd., priority 2020, published 2023)
